Source: PubChem BioAssay (NCI)
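In this assay, cells in 96-well plates receive the compound at five concentrations for 48 hours. Endpoints are linearly interpolated between the surrounding concentrations. Abbreviation: GI50, concentration required for 50% inhibition of growth. TGI marks complete inhibition of growth.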 Where a SMILES comes first, the peptide text is derived from it. [ ]: non-standard residue; d: D form. Phe(4-Cl) = N[CH](Cc1ccc(Cl)cc1)C(=O)O

Key:
Assay in all cases: growth of human tumour cells (NCI), 48 h
RXF 393 renal = test system: RXF 393 renal
CAKI-1 renal = test system: CAKI-1 renal
SNB-75 CNS = test system: SNB-75 CNS
UACC-62 melanoma = test system: UACC-62 melanoma
SN12C renal = test system: SN12C renal
HOP-92 NSCLC = test system: HOP-92 NSCLC
MOLT-4 leukemia = test system: MOLT-4 leukemia
HCT-116 colon = test system: HCT-116 colon
MDA-MB-231 breast = test system: MDA-MB-231 breast
T-47D breast = test system: T-47D breast

SMILES | TGI (RXF 393 renal) [µM] | TGI (CAKI-1 renal) [µM] | TGI (SNB-75 CNS) [µM] | TGI (UACC-62 melanoma) [µM] | TGI (SN12C renal) [µM] | TGI (HOP-92 NSCLC) [µM] | TGI (MOLT-4 leukemia) [µM] | TGI (HCT-116 colon) [µM] | GI50 (CAKI-1 renal) [µM] | GI50 (MDA-MB-231 breast) [µM] | TGI (MDA-MB-231 breast) [µM] | GI50 (SNB-75 CNS) [µM] | GI50 (UACC-62 melanoma) [µM] | GI50 (T-47D breast) [µM] | TGI (T-47D breast) [µM] | GI50 (SN12C renal) [µM] | GI50 (HOP-92 NSCLC) [µM] | GI50 (MOLT-4 leukemia) [µM] | GI50 (HCT-116 colon) [µM] | GI50 (RXF 393 renal) [µM]
Cc1ccc2nc3c(C(=O)NCCN(C)C)cccc3nc2c1 | 15.5 | > 31.6 | 42.9 | 16.8 | 27.9 | > 22.4 | 6.29 | 12 |  |  |  |  |  |  |  |  |  |  |  | 
CCOC(=O)c1c(CN2CCN(c3ccccc3)CC2)n(-c2ccccc2)c2cc(Br)c(O)cc12 |  | 36.9 | 90.5 | 29.6 | 18.5 | 11.7 | 29.5 | 20.1 | 15.3 | 15.7 | 33.1 | 17.7 | 16.1 | 7.59 | 37.9 | 5.68 | 2.98 | 3.56 | 4.39 | 
CC1(n2nc(-c3ccccc3)n(-c3ccccc3)c2=O)CSC1 | > 100 | > 100 | > 100 | > 100 | > 100 | > 100 | > 100 | > 100 |  |  |  |  |  |  |  |  |  |  |  | 
CCOC(=O)Sc1ncnc2nc[nH]c12 | > 100 | 6.31 | > 100 | > 100 | > 100 |  | 6.57 | > 100 | 0.579 | 3.88 | > 100 | 0.747 | 1.37 | 0.799 | > 100 | 7.94 |  | 1.58 | 2.31 | 15.1
NC(=S)N/N=C/c1ccc(OC(=O)COc2ccc(Cl)cc2)cn1 | > 100 | 97.4 | > 100 | 60 | > 100 |  | > 100 | > 100 | 4.3 | 6.61 | > 100 |  | 4.17 | 8.62 | > 100 | 4.53 |  | 2.26 | 4.93 | 5.48
Cn1cc(C(=O)c2ccccc2)ccc1=O | > 100 | > 100 | > 100 | > 100 | > 100 | > 100 | > 100 | > 100 |  |  |  |  |  |  |  |  |  |  |  | 
Cc1noc(C)c1CCCOC1COc2ccccc2OCCOCCOc2ccccc2OC1 | > 100 | > 100 | > 100 | > 100 | > 100 |  |  |  |  |  |  |  |  |  |  |  |  |  |  | 
CC(=O)[CH-]C(=O)c1ccccc1.CC(=O)[CH-]C(=O)c1ccccc1.O=C([O-])c1ccc([O-])cc1.O=C([O-])c1ccc([O-])cc1.[Ti+4] | 56.4 | > 100 | > 100 | > 100 | > 100 |  | 79.3 | > 100 | 35.6 |  |  | 29.1 | 37.2 |  |  | 51.3 |  | 23.8 | 41.4 | 15.3
CC(C)(C)OC(=O)Cc1ccc2c(ccn2Cc2ccccc2)c1 | > 100 | > 100 | > 100 | > 100 | > 100 | > 100 | > 100 | > 100 |  |  |  |  |  |  |  |  |  |  |  | 
Nc1ccc(/C=C/c2ccnc3ccccc23)cc1 |  | 63.9 | 41.8 | 56.9 |  | 50.9 | 38.7 | 42.4 |  |  |  |  |  |  |  |  |  |  |  | 
NC(CC(=O)OCc1ccccc1)C(=O)OCc1ccccc1 (centres undefined) |  | > 100 |  | > 100 | > 100 |  |  | > 100 |  |  |  |  |  |  | > 100 |  |  |  |  | 
CCCCCCCCCCCCCC1CCC(CC)N1 (centres undefined) | 33 | 29.6 | 17.7 | 17.1 | 23.4 | 31.3 | 30.6 | 29.6 |  |  |  |  |  |  |  |  |  |  |  | 
N.N.N.N.N.O=C([O-])c1nn[n-]n1.[Cl-].[Co+3] | > 100 | > 100 | > 100 | > 100 | > 100 | > 100 | > 100 | > 100 | > 100 |  |  | > 100 | > 100 |  |  | > 100 | > 100 | > 100 | > 100 | > 100
O=C1c2ccccc2-c2c1c1ccccc1c(=O)n2Cc1ccccc1 |  | > 100 | > 100 | > 100 | > 100 | > 100 | > 100 | > 100 |  |  | > 100 |  |  |  | > 100 |  |  |  |  | 
CN(C)P(=O)(/C(N)=N/Nc1ccc([N+](=O)[O-])cc1)N(C)C |  | > 100 | > 100 | > 100 | > 100 | > 100 | > 100 | > 100 |  |  |  |  |  |  |  |  |  |  |  | 
CC(O)C(NC(=O)C(Cc1ccccc1)NC(=O)C(NC(=O)C(CCCCN)NC(=O)C(Cc1c[nH]c2ccccc12)NC(=O)C(Cc1ccc(O)cc1)NC(=O)C(Cc1ccc(Cl)cc1)NC(=O)C(N)Cc1ccccc1)C(C)O)C(N)=O (centres undefined) (H-F[Phe(4-Cl)]YWKTFT-NH2; configuration not given here) | 30.3 | 39.5 | 37.4 | 39.8 | > 100 |  | 62.2 | 49 |  |  |  |  |  |  |  |  |  |  |  | 
NC1=NN(c2ccccc2)C(=O)C1C(=O)CCC(=O)Nc1cccc(C(F)(F)F)c1 (centres undefined) | > 100 | > 100 |  | > 100 | > 100 | > 100 | > 100 | > 100 |  |  |  |  |  |  |  |  |  |  |  | 
Cc1ccccc1N(CCC#N)C1=NN(C(=O)CC(=O)Nc2ccccc2)C(c2ccccc2)C1 (centres undefined) | > 100 |  | 96.7 | > 100 | > 100 | > 100 | > 100 | > 100 |  |  |  |  |  |  |  |  |  |  |  | 
O=C(c1cccc(O)c1O)c1cn(Cc2ccc(F)cc2)c2cccc(O)c12 |  | 18.5 | 12 | 14.6 | 21.7 | 7.44 | 10.3 | 17.1 | 4.13 | 5.83 | 40.2 | 2.49 | 4.27 | 3.16 | 16.2 | 6.37 | 0.361 | 0.84 | 3.28 | 
